Results from PubChem BioAssay (NCI).
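Grown in 96-well plates, cells were treated for 48 hours with each compound at five concentrations. Insufficient inhibition: endpoint recorded as highest concentration tested. TGI marks complete inhibition of growth.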

Tests used:
Assay in all cases: growth of human tumour cells (NCI), 48 h
[1] = system: HCT-15 colon
[2] = system: EKVX NSCLC
[3] = system: SK-MEL-28 melanoma
[4] = system: SK-MEL-5 melanoma
[5] = system: LOX IMVI melanoma
[6] = system: NCI-H460 lung
[7] = system: MALME-3M melanoma
[8] = system: ACHN renal
[9] = system: NCI/ADR-RES ovarian
[10] = system: PC-3 prostate
[11] = system: T-47D breast
[12] = system: UO-31 renal
[13] = system: BT-549 breast
[14] = system: TK-10 renal
[15] = system: U251 CNS
[16] = system: A498 renal
[17] = system: HL-60(TB) leukemia
[18] = system: SNB-19 CNS
[19] = system: HT29 colon
[20] = system: SF-295 CNS
[21] = system: HOP-92 NSCLC
[22] = system: K-562 leukemia
[23] = system: SK-OV-3 ovarian
[24] = system: IGROV1 ovarian
[25] = system: SF-539 CNS
[26] = system: MOLT-4 leukemia
[27] = system: UACC-62 melanoma
[28] = system: MDA-N
[29] = system: A549 NSCLC
[30] = system: M14 melanoma
[31] = system: MCF7 breast
[32] = system: MDA-MB-231 breast
[33] = system: DU-145 prostate
[34] = system: CAKI-1 renal
[35] = system: OVCAR-8 ovarian
[36] = system: SW-620 colon
[37] = system: KM12 colon
[38] = system: NCI-H23 lung
[39] = system: HS 578T breast
[40] = system: OVCAR-3 ovarian
[41] = system: COLO 205 colon
[42] = system: HCC-2998 colon
[43] = system: SN12C renal
[44] = system: SK-MEL-2 melanoma
[45] = system: SNB-75 CNS
[46] = system: NCI-H226 lung
[47] = system: 786-0 renal
[48] = system: HOP-62 NSCLC
[49] = system: OVCAR-5 ovarian
[50] = system: CCRF-CEM leukemia
[51] = system: MDA-MB-435
[52] = system: HCT-116 colon
[53] = system: OVCAR-4 ovarian
[54] = system: UACC-257 melanoma
[55] = system: SR leukemia
[56] = system: RPMI-8226 leukemia
[57] = system: NCI-H522 lung
[58] = system: SF-268 CNS

SMILES: O=C1/C(=C/c2ccc(Cl)cc2)CCC/C1=C\c1ccc(O)c(CN2CCCCC2)c1
- TGI [1]: 27.2 µM
- TGI [2]: 40.7 µM
- TGI [3]: 62.6 µM
- TGI [4]: 35.3 µM
- TGI [5]: 42.5 µM
- TGI [6]: 94.3 µM
- TGI [7]: 59.1 µM
- TGI [8]: 30.7 µM
- TGI [9]: 51.8 µM
- TGI [10]: > 100 µM
- TGI [11]: 63.5 µM
- TGI [12]: 31.5 µM
- TGI [13]: 31 µM
- TGI [14]: 79.2 µM
- TGI [15]: 57.1 µM
- TGI [16]: 30 µM
- TGI [17]: 7.25 µM
- TGI [18]: > 100 µM
- TGI [19]: 17.5 µM
- TGI [20]: 43.3 µM
- TGI [21]: 42.1 µM
- TGI [22]: 66.1 µM
- TGI [23]: 89.5 µM
- TGI [24]: 44 µM
- TGI [25]: 58.3 µM
- TGI [26]: 69.4 µM
- TGI [27]: 36 µM
- TGI [28]: > 100 µM
- TGI [29]: > 100 µM
- TGI [30]: 49.3 µM
- TGI [31]: > 100 µM
- TGI [32]: 63.6 µM
- TGI [33]: 36.9 µM
- TGI [34]: 40.2 µM
- TGI [35]: 48.8 µM
- TGI [36]: > 100 µM
- TGI [37]: 16.7 µM
- TGI [38]: 49.1 µM
- TGI [39]: 46 µM
- TGI [40]: 87.5 µM
- TGI [41]: 59.3 µM
- TGI [42]: 38.7 µM
- TGI [43]: 87.8 µM
- TGI [44]: > 100 µM
- TGI [45]: > 100 µM
- TGI [46]: 35.5 µM
- TGI [47]: 34.5 µM
- TGI [48]: > 100 µM
- TGI [49]: 50.4 µM
- TGI [50]: 35 µM
- TGI [51]: > 100 µM
- TGI [52]: 33.5 µM
- TGI [53]: 44.2 µM
- TGI [54]: 90.7 µM
- TGI [55]: 9.67 µM

SMILES: Cc1cc(C)n(-c2nc3ccccc3c(=O)[nH]2)n1
- TGI [1]: 23.9 µM
- TGI [2]: 28.9 µM
- TGI [56]: > 41.9 µM
- TGI [3]: > 41.2 µM
- TGI [4]: 17.8 µM
- TGI [5]: 13.7 µM
- TGI [6]: > 49.3 µM
- TGI [8]: 21.8 µM
- TGI [9]: 13.9 µM
- TGI [10]: 25.8 µM
- TGI [11]: 48.8 µM
- TGI [12]: 36.8 µM
- TGI [13]: > 100 µM
- TGI [14]: > 100 µM
- TGI [15]: > 45.5 µM
- TGI [16]: > 63.8 µM
- TGI [17]: > 33.7 µM
- TGI [18]: > 72.1 µM
- TGI [19]: > 100 µM
- TGI [20]: > 50.7 µM
- TGI [21]: > 68.3 µM
- TGI [22]: > 100 µM
- TGI [23]: > 100 µM
- TGI [24]: 12.4 µM
- TGI [25]: > 75 µM
- TGI [26]: 50.5 µM
- TGI [27]: 21.3 µM
- TGI [28]: > 76.9 µM
- TGI [29]: > 35.5 µM
- TGI [30]: > 100 µM
- TGI [31]: > 100 µM
- TGI [32]: 25.3 µM
- TGI [33]: 21.3 µM
- TGI [34]: 37.5 µM
- TGI [36]: 38.9 µM
- TGI [37]: 23.1 µM
- TGI [38]: 32.8 µM
- TGI [39]: > 91.5 µM
- TGI [40]: > 45 µM
- TGI [41]: 17.1 µM
- TGI [42]: 31.3 µM
- TGI [43]: > 100 µM
- TGI [44]: 32.2 µM
- TGI [45]: > 71.6 µM
- TGI [46]: > 66.8 µM
- TGI [47]: 19.6 µM
- TGI [48]: > 43.7 µM
- TGI [49]: > 100 µM
- TGI [50]: > 100 µM
- TGI [57]: 18.8 µM
- TGI [58]: > 47.1 µM
- TGI [51]: 26.9 µM
- TGI [52]: 21.6 µM
- TGI [53]: > 100 µM
- TGI [54]: > 100 µM
- TGI [55]: > 29.5 µM
